The test system of this assay is cGATA6-minK co-positive cells. The assay can be described thus: Whole-cell patch-clamp of hyperpolarization-activated (If) current before and after cesium chloride. The format is cell-based, murine. The conditions noted are these: 10 mM cesium chloride, n=16 cells, FIG. 3(E),(F). The procedure:
On the day prior to recording, EBs were dispersed and plated onto glass coverslips coated with 0.1% gelatin. On the following day, coverslips were transferred to a recording chamber mounted on an inverted microscope (Nikon Diaphot-TMD) and superfused with extracellular recording solution. All experiments were conducted at room temperature (22-25° C.). Whole-cell voltage-clamp and current-clamp experiments were carried out using a standard Giga-seal patch-clamp method (Hamill O P et al. Pflugers Arch 391 (1981) 85). Recording electrodes were fabricated from 1.5 mm thin-walled borosilicate glass tubes (#7052. Garner Glass, Claremont, Calif.), using a Flaming-Brown microelectrode puller (P-97, Sutter Instruments, Novato, Calif.) and heat-polished before use. […] Recordings were performed using an Axoclamp 2B patch-clamp amplifier (Axon Instruments, Union City, Calif.). Data were filtered at 2 kHz, and data were acquired using Clampex 8 software (Axon Instruments). […]
In FIG. 3 (B) cGATA6-minK cells with morphologies similar to contracting atrial myocytes display atrial-like action potential waveforms (FIG. 3D). […] (F) Current-voltage relationship for hyperpolarization-activated currents measured in cGATA6-minK co-positive cells before (triangles) and after (squares) treatment with 10 mM cesium chloride. […]

From US7960173B2, “Cardiac conduction system cells and uses thereof” (Board of Supervisors of Louisiana State University and …, priority 2004, dated 2011) come the findings set out here.

Each structure is given as a SMILES string.

On to `[Cl-].[Cs+]` [cesium chloride], for which the “sensitivity of hyperpolarization-activated cation current (If) to cesium” value is “cesium-sensitive”.
